Key:
[1] = tested on: human cancer cell lines (C8161, SKOV3, 231MFP, MUM2C, OVCAR3); assay: Lipid measurements in cancer cells; assay type: cell-based; settings: aggressive melanoma, ovarian, breast cancer cells
Experimental: Pharmacological inhibition of MAGL in cancer cells. Pharmacological inhibition studies were conducted as described previously (Chiang et al., Chem. Biol. 13:1041-1050, 2006). Cancer cells were maintained in RPMI medium 1640 with 10% (v/v) fetal calf serum at 37° C. in a humidified atmosphere of 5% CO2/95% air. At 80% confluency, cells were trypsinized and counted using a hemocytometer, and 1×10^6 cells were plated in 6 cm dishes (subconfluent). […] After incubation for 4 hr, the cells were harvested and analyzed by ABPP or LC-MS.
Lipid measurements in cancer cells. Lipid measurements were conducted similarly to protocols described previously (Chiang et al., 2006; supra). Cancer cells were grown in serum-free media for 4 hrs to minimize the contribution of serum-derived lipids to the cellular profiles. The cells (1×10^6 cells/6 cm dish, 80% confluency) were washed with twice with phosphate buffer saline (PBS), isolated by centrifugation at 1,400×g, and dounce-homogenized in 4 ml of a 2:1:1 mixture of chloroform:methanol:Tris buffer. Samples were homogenized in the presence of the following synthetic standards: C12:0 MAGE (10 nmol), C15:0 FFA (10 nmol). Organic and aqueous layers were separated by centrifugation at 2000×g for 5 min and the organic layer was collected. The aqueous layer was acidified (for metabolites such as LPA) by adding 5% formic acid, followed by the addition of 2 ml chloroform. The mixture was vortexed, and the organic layers were combined, dried down under N2 and dissolved in 100 μl chloroform, of which 30 μl was analyzed by LC-MS.
LC-MS analysis was performed by using an Agilent 1100 LC-MSD SL instrument. […] Mobile phase A was composed of a 95:5 ratio of water:methanol, and mobile phase B consisted of 2-propanol, methanol, and water in a 60:35:5 ratio. Solvent modifiers such as 0.1% formic acid and 0.1% ammonium hydroxide were used to assist ion formation as well as to improve the LC resolution in both positive and negative ionization modes, respectively. The flow rate for each run started at 0.1 ml/min for 5 min, to alleviate backpressure associated with injecting chloroform. The gradient started at 0% B and increased linearly to 100% B over the course of 45 min with a flow rate of 0.4 ml/min, followed by an isocratic gradient of 100% B for 17 min at 0.5 ml/min before equilibrating for 8 min at 0% B with a flow rate of 0.5 ml/min. MS analysis was performed with an electrospray ionization (ESI) source. The capillary voltage was set to 3.0 kV, and the fragmentor voltage was set to 100 V. The drying gas temperature was 350° C., the drying gas flow rate was 10 L/min, and the nebulizer pressure was 35 psi.
Lipidomic analysis was performed in both targeted and untargeted mode by LC-MS analysis. Standard lipid classes were quantitated by targeting using selected ion monitoring (SIM) (except for very high-abundance metabolites which were quantitated by untargeted analysis) and identities of metabolites were confirmed by coelution of metabolites with their respective standards and mass accuracy to within 10 ppm as determined with an accurate mass Agilent 6520 Accurate Mass QTOF-MS-MS. These lipids were quantified by measuring the area under the peak and were normalized to an internal standard (C12:0 MAGE in positive mode or C15:0 FFA in negative mode). […]

MAGL [2] = biological target: T1, MAGL (Homo sapiens, UniProt Q99685); assay: shRNA knockdown of MAGL, activity by ABPP and C20:4 MAG hydrolysis; assay type: cell-based; settings: aggressive cancer lines, ABPP
T1 construct: endogenous in cells; host or cells: human cancer lines (C8161, MUM2B, MUM2C, SKOV3, OVCAR3, 231MFP, MCF7)
T1 sequence (Q99685 1-303): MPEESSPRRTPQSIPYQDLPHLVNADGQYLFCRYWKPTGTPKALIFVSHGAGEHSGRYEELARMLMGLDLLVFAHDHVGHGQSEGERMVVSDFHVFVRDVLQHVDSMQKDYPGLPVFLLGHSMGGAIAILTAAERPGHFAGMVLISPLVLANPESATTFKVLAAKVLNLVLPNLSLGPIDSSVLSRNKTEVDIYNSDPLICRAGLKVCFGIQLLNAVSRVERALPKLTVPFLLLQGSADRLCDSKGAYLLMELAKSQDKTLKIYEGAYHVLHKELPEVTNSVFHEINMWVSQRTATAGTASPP
Experimental: ABPP and hydrolytic activity assays of cancer cell proteomes. Identification and comparative quantitation of serine hydrolase activities from cancer cell proteomes by ABPP-MudPIT or gel-based ABPP was conducted as previously described using FP-biotin (5 μM) and FP-rhodamine (2 μM), respectively (Jessani et al., Proc. Natl. Acad. Sci. U.S.A 99:10335-10340, 2002; and Jessani et al., Nat. Methods 2:691-697, 2005). C20:4 MAG hydrolytic activity assays were performed as described previously (Blankman et al., Chem. Biol. 14:1347-1356, 2007). For ABPP experiments, cell lysate proteomes were treated with 2 μM FP-rhodamine for 30 min at room temperature (50 μl total reaction volume). Reactions were quenched with one volume of standard 4×SDS/PAGE loading buffer (reducing), separated by SDS/PAGE (10% acrylamide), and visualized in-gel with a Hitachi FMBio IIe flatbed fluorescence scanner (MiraiBio). Integrated band intensities were calculated for the labeled proteins and averaged from three independent cell samples to determine the level of each enzyme activity. IC50 values were determined from dose-response curves from three trials at each inhibitor concentration by using SigmaPlot 10.0. MAGL expression was also assessed by western blotting using standard procedures.
RNA interference studies in human cancer cell lines. […]

FAAH = biological target: T2, FAAH (Mus musculus, UniProt O08914); assay: Competitive ABPP, mouse brain membrane proteome; assay type: biochemical
T2 construct: from tissue; host or cells: mouse brain membrane fraction
T2 sequence (O08914 1-579): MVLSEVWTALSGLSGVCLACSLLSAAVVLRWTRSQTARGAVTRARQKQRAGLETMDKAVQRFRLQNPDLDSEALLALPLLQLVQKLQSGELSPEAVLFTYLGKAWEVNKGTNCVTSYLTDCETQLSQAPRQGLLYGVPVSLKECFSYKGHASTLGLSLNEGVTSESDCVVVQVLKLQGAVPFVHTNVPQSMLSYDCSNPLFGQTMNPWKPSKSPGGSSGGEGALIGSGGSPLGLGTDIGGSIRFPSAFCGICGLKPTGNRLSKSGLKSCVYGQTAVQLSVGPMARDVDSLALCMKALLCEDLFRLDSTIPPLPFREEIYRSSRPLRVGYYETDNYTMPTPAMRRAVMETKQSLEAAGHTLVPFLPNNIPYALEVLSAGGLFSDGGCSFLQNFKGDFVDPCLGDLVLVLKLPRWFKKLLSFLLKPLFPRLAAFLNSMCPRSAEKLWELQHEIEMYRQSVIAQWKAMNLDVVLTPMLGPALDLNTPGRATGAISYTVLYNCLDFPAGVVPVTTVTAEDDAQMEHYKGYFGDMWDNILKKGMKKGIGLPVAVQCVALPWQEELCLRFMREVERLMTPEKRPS
Excerpt: (§1) First, serine hydrolases are susceptible to covalent inactivation by specific chemical groups that show little or no cross-reactivity with other enzyme classes. […] Second, the functional state of serine hydrolases can be collectively profiled in native biological systems using activity-based protein profiling (ABPP) methods (Cravat et al., Annu Rev Biochem 77:383-414, 2008). ABPP of serine hydrolases uses reporter-tagged fluorophosphonates (FPs), which serve as general activity-based probes for this large and diverse enzyme class (Liu et al., Proc. Natl. Acad. Sci. U.S.A. 96:14694-9, 1999). When performed in a competitive mode, ABPP can serve as a powerful screen to evaluate the potency and selectivity of small-molecule enzyme inhibitors directly in complex proteomes. The screen can be performed as described in the art, e.g., Liu et al., Proc. Natl. Acad. Sci. U.S.A. 96:14694-9, 1999; Li et al., J. Am. Chem. Soc. 129:9594-5, 2007; Leung et al., Nat. Biotech. 21:687-91, 2003; and Greenbaum et al., Mol. Cell. Proteomics 1:60-68, 2002.
(§2) Competitive activity-based protein profiling (ABPP) experiments. In vitro inhibitor selectivity was examined using a competitive ABPP method as described in the art (e.g., Li et al., J. Am. Chem. Soc. 129:9594-5, 2007; and Leung et al., Nat. Biotech. 21:687-91, 2003). Briefly, mouse brain membrane proteomes, prepared as described herein, were diluted to 1 mg/ml in PBS and pre-incubated with varying concentrations of inhibitors (1 nM to 10 μM) for 30 min at 37° C. prior to the addition of a FP-rhodamine at a final concentration of 2 μM in a 50 μl of total reaction volume. After 30 min at room temperature, the reactions were quenched with 4×SDS-PAGE loading buffer, boiled for 5 min at 90° C., subjected to SDS-PAGE, and visualized in-gel using a flatbed fluorescence scanner.
(§3) Every 10 min, 50 ul of the reaction was removed and treated with FP-rhodamine (2 μM) for 2 min, quenched with 4×SDS-PAGE loading buffer, and boiled for 5 min at 90° C. The combined reactions were subjected to SDS-PAGE and visualized in-gel using a flatbed fluorescence scanner. The percentage activity remaining was determined by measuring the integrated optical density corresponding to the MAGL or FAAH bands and the results were fit to an exponential curve to determine the pseudo-first order rate constants.

MAGL [3] = biological target: T3, MAGL (Mus musculus, UniProt O35678); assay: Competitive ABPP, mouse brain membrane proteome; assay type: biochemical
T3 construct: from tissue; host or cells: mouse brain membrane fraction (C57Bl/6 mice for the in vivo studies)
T3 sequence (O35678 1-303): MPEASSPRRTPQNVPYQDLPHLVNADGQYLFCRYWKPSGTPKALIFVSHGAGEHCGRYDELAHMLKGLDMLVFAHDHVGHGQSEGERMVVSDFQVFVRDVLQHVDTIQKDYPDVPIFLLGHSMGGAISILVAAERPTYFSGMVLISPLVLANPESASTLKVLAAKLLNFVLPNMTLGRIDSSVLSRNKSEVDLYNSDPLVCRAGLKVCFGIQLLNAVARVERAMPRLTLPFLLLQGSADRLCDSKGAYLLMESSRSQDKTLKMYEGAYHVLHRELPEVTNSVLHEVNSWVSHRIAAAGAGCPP
Excerpt: as §1, §2, §3

ABHD6 = biological target: T4, ABHD6 (Mus musculus, UniProt Q8R2Y0); assay: Competitive ABPP, mouse brain membrane proteome; assay type: biochemical
T4 construct: from tissue; host or cells: mouse brain membrane fraction
T4 sequence (Q8R2Y0 1-336): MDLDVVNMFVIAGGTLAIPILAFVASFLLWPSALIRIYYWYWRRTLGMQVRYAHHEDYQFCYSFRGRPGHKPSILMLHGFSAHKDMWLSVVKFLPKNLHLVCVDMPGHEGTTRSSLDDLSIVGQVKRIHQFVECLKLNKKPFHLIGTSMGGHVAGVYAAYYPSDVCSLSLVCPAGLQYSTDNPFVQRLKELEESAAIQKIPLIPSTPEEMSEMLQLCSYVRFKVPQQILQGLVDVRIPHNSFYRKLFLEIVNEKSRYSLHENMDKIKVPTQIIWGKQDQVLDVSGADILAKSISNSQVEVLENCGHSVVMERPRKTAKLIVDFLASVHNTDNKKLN
Excerpt: as §1, §2, §3

Compound	FFA levels in shMAGL cells [1]	MAG levels in shMAGL cells [1]	other serine hydrolase activities (MAGL [2])	effect on FAAH in competitive ABPP screen (FIG. 1B) (FAAH)	effect on MAGL in competitive ABPP screen (FIG. 1B) (MAGL [3])	effect on ABHD6 in competitive ABPP screen (FIG. 1B) (ABHD6)
shMAGL2: short hairpin RNA oligonucleotide for MAGL, 5′-AGACTACCCTGGGCTTCCT-3′ (SEQ ID NO:2) (expressed or natural sequence)	corresponding reductions	significant elevations	unaffected	–	–	–
O=C(Oc1ccc([N+](=O)[O-])cc1)N1CCN(C(c2ccc(F)cc2)c2ccc(F)cc2)CC1 [WWL162]	–	–	–	greatly reducing activity	preserve potency	preserve potency

Reference: patent US8772318B2, “Methods and compositions related to targeting monoacylglycerol lipase” (The Scripps Research Institute, priority 2008, dated 2014)
